Results published in ChEMBL document CHEMBL1275264, “The GABA(A) receptor as a target for photochromic molecules” (Bioorg Med Chem, 2010).

Tests used:
[1] = target: GABA A receptor alpha-4/beta-3/gamma-2 (Homo sapiens, UniProt P18507+P28472+P48169); assay: Binding affinity to human recombinant GABA alpha-4-beta-3-gamma-2 receptor; format: protein-complex assay
[2] = target: T1, GABA-A receptor; alpha-5/beta-3/gamma-2 (Homo sapiens, UniProt P18507+P28472+P31644); assay: Binding affinity to human recombinant GABA alpha-5-beta-3-gamma-2 receptor; format: protein-complex assay
T1 sequence (P18507 whole entry): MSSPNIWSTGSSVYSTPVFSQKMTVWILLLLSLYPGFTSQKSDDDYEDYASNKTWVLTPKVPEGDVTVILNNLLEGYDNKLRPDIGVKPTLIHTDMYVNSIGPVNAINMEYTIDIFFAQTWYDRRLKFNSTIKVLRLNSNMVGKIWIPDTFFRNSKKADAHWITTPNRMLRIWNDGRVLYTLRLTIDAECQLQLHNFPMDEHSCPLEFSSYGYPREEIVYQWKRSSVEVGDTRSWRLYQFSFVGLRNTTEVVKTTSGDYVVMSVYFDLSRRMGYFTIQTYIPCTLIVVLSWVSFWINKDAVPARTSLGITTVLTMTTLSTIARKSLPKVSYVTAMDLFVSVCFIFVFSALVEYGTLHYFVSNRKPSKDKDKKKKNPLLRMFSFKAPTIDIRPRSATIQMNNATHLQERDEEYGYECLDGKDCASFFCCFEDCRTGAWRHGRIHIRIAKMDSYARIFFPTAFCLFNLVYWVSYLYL
T1 sequence (P28472 whole entry): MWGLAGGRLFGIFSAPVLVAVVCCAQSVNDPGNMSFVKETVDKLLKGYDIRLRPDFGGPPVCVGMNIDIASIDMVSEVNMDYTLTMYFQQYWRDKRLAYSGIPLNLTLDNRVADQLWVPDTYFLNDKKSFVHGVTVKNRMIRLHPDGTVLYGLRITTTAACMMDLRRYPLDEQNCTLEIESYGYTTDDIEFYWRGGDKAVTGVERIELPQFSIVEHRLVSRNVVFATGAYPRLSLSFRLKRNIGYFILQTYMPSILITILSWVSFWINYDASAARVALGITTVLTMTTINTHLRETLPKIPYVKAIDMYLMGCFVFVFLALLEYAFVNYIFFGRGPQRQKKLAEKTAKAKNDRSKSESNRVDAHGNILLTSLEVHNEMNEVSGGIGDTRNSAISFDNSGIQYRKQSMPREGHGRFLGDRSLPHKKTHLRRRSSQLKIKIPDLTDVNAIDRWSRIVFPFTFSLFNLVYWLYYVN
T1 sequence (P31644 whole entry): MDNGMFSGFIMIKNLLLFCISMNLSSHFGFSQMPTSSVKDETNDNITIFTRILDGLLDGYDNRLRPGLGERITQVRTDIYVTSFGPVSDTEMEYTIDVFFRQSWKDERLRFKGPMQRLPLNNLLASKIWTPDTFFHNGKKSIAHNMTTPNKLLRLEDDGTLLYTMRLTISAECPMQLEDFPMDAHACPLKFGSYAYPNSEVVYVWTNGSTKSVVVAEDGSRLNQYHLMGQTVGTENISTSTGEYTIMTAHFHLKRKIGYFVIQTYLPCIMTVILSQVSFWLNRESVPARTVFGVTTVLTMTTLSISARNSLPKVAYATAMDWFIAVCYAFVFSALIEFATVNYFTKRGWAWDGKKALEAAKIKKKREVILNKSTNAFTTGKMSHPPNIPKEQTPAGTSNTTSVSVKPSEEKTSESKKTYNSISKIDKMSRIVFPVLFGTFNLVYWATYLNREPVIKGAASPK

Sequence of GABA A receptor alpha-4/beta-3/gamma-2 (P48169 whole entry, one chain of several): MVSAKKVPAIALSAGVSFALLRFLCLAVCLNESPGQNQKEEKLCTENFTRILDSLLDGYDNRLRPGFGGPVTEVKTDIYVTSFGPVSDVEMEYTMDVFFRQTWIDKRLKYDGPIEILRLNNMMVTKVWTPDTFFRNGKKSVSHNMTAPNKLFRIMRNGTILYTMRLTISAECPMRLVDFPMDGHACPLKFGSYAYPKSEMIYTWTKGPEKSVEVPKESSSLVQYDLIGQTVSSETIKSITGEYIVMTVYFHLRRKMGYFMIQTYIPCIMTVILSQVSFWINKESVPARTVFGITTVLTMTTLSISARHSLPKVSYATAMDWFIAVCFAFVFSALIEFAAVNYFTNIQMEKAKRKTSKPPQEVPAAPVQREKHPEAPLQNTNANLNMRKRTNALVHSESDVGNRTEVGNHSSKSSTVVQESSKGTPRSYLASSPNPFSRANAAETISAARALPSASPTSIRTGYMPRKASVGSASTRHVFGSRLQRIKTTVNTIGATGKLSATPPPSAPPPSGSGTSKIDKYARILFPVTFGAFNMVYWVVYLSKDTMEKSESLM

Structure (SMILES)	Ki [1] [µM]	Ki [2] [µM]
CC(=O)c1ncn2c1CN(C)C(=O)c1cc(Cl)ccc1-2	2.61	29.5
COCc1ncn2c1CN(C)C(=O)c1cc(Cl)ccc1-2	0.0388	> 0.3
